{"source": "patent US10190093B2", "about": "“Artificial oocyte activation” (The Curators of the University of Missouri, priority 2013, dated 2019)", "key": {"[1]": {"system": "Metaphase II porcine oocytes", "assay": "Parthenogenetic activation of porcine oocytes by TPEN alone", "type": "cell-based, pig", "experimental": "Oocytes were obtained from either pre-pubertal gilt ovaries from an abattoir (Farmland Foods Inc., Milan, Mo.), or sow-derived oocytes that were purchased from Applied Reproductive Technology (Madison, Wis.). Immature oocytes from gilt ovaries were aspirated from medium size (3-6 mm) follicles by using an 18 gauge hypodermic needle attached to a 10 mL syringe. Oocytes with evenly dark cytoplasm and intact surrounding cumulus cells were then selected for maturation. Around 50 cumulus oocyte complexes were place in a well containing 500 μL of maturation medium, TCM 199 (Invitrogen, Grand Island, N.Y.) with 3.05 mM glucose, 0.91 mM sodium pyruvate, 0.57 mM cysteine, 10 ng/mL epidermal growth factor (EGF), 0.5 mg/mL luteinizing hormone (LH), 0.5 mg/mL follicle stimulating hormone (FSH), 10 ng/mL gentamicin (APP Pharm, Schaumburg, Ill.), and 0.1% polyvinyl alcohol (PVA) for 42-44 hr at 38.5° C., 5% CO2, in humidified air. The oocytes from sows were shipped overnight in maturation medium (TCM199 with 2.9 mM Hepes, […], 10 ng/mL EGF, 0.5 mg/mL p-FSH, 0.91 mM pyruvate, 0.5 mM cysteine, 10% porcine follicular fluid, 25 ng/mL gentamicin) and transferred into fresh medium at 24 hr. At the end of the maturation, the surrounding cumulus cells were removed from the oocytes by vortexing for 3 min in the presence of 0.1% hyaluronidase. Oocytes with a visible polar body were selected in manipulation medium (TCM199 with 0.6 mM NaHCO3, 2.9 mM Hepes, 30 mM NaCl, 10 ng/mL gentamicin, and 3 mg/mL bovine serum albumin [BSA]; and osmolarity of 305) and then used for the experiments. Different oocyte activation methods were used for the experiments. As conventional activation methods, either electrical or chemical activation was used. For electrical activation, mature oocytes were activated in activation medium (0.3 M mannitol, 1.0 mM CaCl2, 0.1 mM MgCl2, and 0.5 mM Hepes) by two direct-current (DC) pulses (1-sec interval) at 1.2 kV/cm for 30 μsec (using BTX Electro Cell Manipulator, Harvard Apparatus, Holliston, Mass.). […] For TPEN mediated activation, mature oocytes were incubated in TL-Hepes media with various concentrations of TPEN for different durations. […] At the end of the culture, where applicable, the frequency of cleaved embryos and blastocysts, and total cell number in the blastocysts were recorded. Hoechst 33342 (1.2 mg/mL) was used to stain nuclei and the embryos were then evaluated by epi-fluorescence microscopy. Metaphase II porcine oocytes were incubated in vitro with TPEN to determine if the concentration/duration of 100 μM of TPEN for 45 min, as described in the mouse study by Suzuki, et al. (Development 137, 2659-2669, 2010) had any effect on pig oocytes. […] A wide range of TPEN concentrations/durations was tested to identify an optimum concentration of TPEN that can activate pig oocytes; 100 μM, 200 μM, and 250 μM and 30 min-2.5 hours of duration were tested (Table 1). Optimum embryo development was achieved by using 200 μM TPEN for 30 min."}, "[2]": {"system": "activated porcine oocytes", "assay": "Treatment of chemically (THI/DTT) activated oocytes with TPEN, parthenogenetic embryo development", "type": "cell-based, pig", "experimental": "Oocytes were obtained from either pre-pubertal gilt ovaries from an abattoir (Farmland Foods Inc., Milan, Mo.), or sow-derived oocytes that were purchased from Applied Reproductive Technology (Madison, Wis.). Immature oocytes from gilt ovaries were aspirated from medium size (3-6 mm) follicles by using an 18 gauge hypodermic needle attached to a 10 mL syringe. Oocytes with evenly dark cytoplasm and intact surrounding cumulus cells were then selected for maturation. Around 50 cumulus oocyte complexes were place in a well containing 500 μL of maturation medium, TCM 199 (Invitrogen, Grand Island, N.Y.) with 3.05 mM glucose, 0.91 mM sodium pyruvate, 0.57 mM cysteine, 10 ng/mL epidermal growth factor (EGF), 0.5 mg/mL luteinizing hormone (LH), 0.5 mg/mL follicle stimulating hormone (FSH), 10 ng/mL gentamicin (APP Pharm, Schaumburg, Ill.), and 0.1% polyvinyl alcohol (PVA) for 42-44 hr at 38.5° C., 5% CO2, in humidified air. […] At the end of the maturation, the surrounding cumulus cells were removed from the oocytes by vortexing for 3 min in the presence of 0.1% hyaluronidase. Oocytes with a visible polar body were selected in manipulation medium (TCM199 with 0.6 mM NaHCO3, 2.9 mM Hepes, 30 mM NaCl, 10 ng/mL gentamicin, and 3 mg/mL bovine serum albumin [BSA]; and osmolarity of 305) and then used for the experiments. Different oocyte activation methods were used for the experiments. As conventional activation methods, either electrical or chemical activation was used. For electrical activation, mature oocytes were activated in activation medium (0.3 M mannitol, 1.0 mM CaCl2, 0.1 mM MgCl2, and 0.5 mM Hepes) by two direct-current (DC) pulses (1-sec interval) at 1.2 kV/cm for 30 μsec (using BTX Electro Cell Manipulator, Harvard Apparatus, Holliston, Mass.). […] For TPEN mediated activation, mature oocytes were incubated in TL-Hepes media with various concentrations of TPEN for different durations. […] At the end of the culture, where applicable, the frequency of cleaved embryos and blastocysts, and total cell number in the blastocysts were recorded. Hoechst 33342 (1.2 mg/mL) was used to stain nuclei and the embryos were then evaluated by epi-fluorescence microscopy. Treatment of activated oocytes with TPEN was investigated for the potential to increase the efficiency of oocyte activation. […] It was hypothesized that the detrimental effect was due to excess stimuli from Ca^2+ signaling and TPEN. Therefore, lower concentrations of TPEN were introduced after activating oocytes with a conventional method. Incubating activated oocytes with a lower concentration of TPEN increased developmental potential of parthenogenetic embryos."}}, "note": "Values joined by “and” are separate entries in the source; they are usually repeats but may differ in a detail not shown here. Equal entries are not always repeated. Marks after values point to notes of the source that are not given here."}
{"smiles": "c1ccc(CN(CCN(Cc2ccccn2)Cc2ccccn2)Cc2ccccn2)nc1", "note": "[TPEN, N,N,N′,N′-tetrakis(2-pyridylmethyl)ethane-1,2-diamine]", "values": [{"measurement": "Frequency of forming blastocysts on day 7", "setting": "[1]; 100 μM of TPEN for 45 min", "value": 13, "unit": "%"}, {"measurement": "blastocyst formation on day 5", "setting": "[1]; 100 μM of TPEN for 45 min", "value": "No blastocyst formation was observed"}, {"measurement": "expanded blastocysts on day 7", "setting": "[1]; 100 μM of TPEN for 45 min", "value": "no expanded blastocysts"}, {"measurement": "toxic effect on embryo development", "setting": "[1]; 250 μM TPEN over 2.5 hours", "value": "toxic effect"}, {"measurement": "% blastocysts", "setting": "[1]; TPEN alone, 100 μM, 2 hr", "value": 12.0, "unit": "%"}, {"measurement": "% blastocysts", "setting": "[1]; TPEN alone, 200 μM, 30 min", "value": 23.0, "unit": "%"}, {"measurement": "total number of nuclei in blastocysts", "setting": "[1]; TPEN alone, 200 μM, 30 min", "value": "27.2±1.92"}, {"measurement": "% blastocysts", "setting": "[1]; TPEN alone, 200 μM, 1 hr", "value": 20.0, "unit": "%"}, {"measurement": "% blastocysts", "setting": "[1]; TPEN alone, 250 μM, 2 hr", "value": 10.0, "unit": "%"}, {"measurement": "% blastocysts", "setting": "[2]; THI/DTT + 5 μM TPEN, 30 min", "value": "27.2±1.7% and 27.2^b %"}, {"measurement": "% cleaved", "setting": "[2]; THI/DTT + 5 μM TPEN, 30 min", "value": "74.6^b %"}, {"measurement": "Total cell number in blastocysts", "setting": "[2]; THI/DTT + 5 μM TPEN, 30 min", "value": "33.1 ± 2.6^b"}, {"measurement": "% blastocysts", "setting": "[2]; THI/DTT + 10 μM TPEN, 10 min", "value": "21.7^b %"}, {"measurement": "% cleaved", "setting": "[2]; THI/DTT + 10 μM TPEN, 10 min", "value": "81.9^b %"}, {"measurement": "Total cell number in blastocysts", "setting": "[2]; THI/DTT + 10 μM TPEN, 10 min", "value": "31.2 ± 2.6^b"}, {"measurement": "blastocyst formation", "setting": "[2]; chemically activated oocytes incubated with TPEN 100 μM, 45 min", "value": "no blastocyst formation was observed"}]}
